Data as given in PubChem BioAssay (NCI).
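Five compound concentrations were applied to cells in 96-well plates for 48 hours; endpoints were derived by simple linear interpolation of the resulting dose-response curve. The concentration for 50% growth inhibition is given as GI50. TGI denotes the concentration required for complete inhibition of growth.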

Legend:
Assay in all cases: DTP human tumour cell line panel, 48 h
MALME-3M melanoma = system: MALME-3M melanoma
BT-549 breast = system: BT-549 breast
M14 melanoma = system: M14 melanoma
SNB-75 CNS = system: SNB-75 CNS
CCRF-CEM leukemia = system: CCRF-CEM leukemia
OVCAR-5 ovarian = system: OVCAR-5 ovarian
SK-MEL-5 melanoma = system: SK-MEL-5 melanoma
U251 CNS = system: U251 CNS
SF-268 CNS = system: SF-268 CNS
UO-31 renal = system: UO-31 renal
K-562 leukemia = system: K-562 leukemia
HL-60(TB) leukemia = system: HL-60(TB) leukemia
HCT-15 colon = system: HCT-15 colon
HOP-62 NSCLC = system: HOP-62 NSCLC
ACHN renal = system: ACHN renal
MCF7 breast = system: MCF7 breast
SK-OV-3 ovarian = system: SK-OV-3 ovarian
DU-145 prostate = system: DU-145 prostate
HT29 colon = system: HT29 colon
MDA-MB-468 breast = system: MDA-MB-468 breast
SK-MEL-2 melanoma = system: SK-MEL-2 melanoma
RXF 393 renal = system: RXF 393 renal
T-47D breast = system: T-47D breast
A549 NSCLC = system: A549 NSCLC
OVCAR-3 ovarian = system: OVCAR-3 ovarian
OVCAR-4 ovarian = system: OVCAR-4 ovarian
LOX IMVI melanoma = system: LOX IMVI melanoma
NCI-H522 lung = system: NCI-H522 lung
HS 578T breast = system: HS 578T breast
NCI-H226 lung = system: NCI-H226 lung
MOLT-4 leukemia = system: MOLT-4 leukemia
SNB-19 CNS = system: SNB-19 CNS
SR leukemia = system: SR leukemia
IGROV1 ovarian = system: IGROV1 ovarian
UACC-62 melanoma = system: UACC-62 melanoma
TK-10 renal = system: TK-10 renal
SK-MEL-28 melanoma = system: SK-MEL-28 melanoma
RPMI-8226 leukemia = system: RPMI-8226 leukemia
HCC-2998 colon = system: HCC-2998 colon
KM12 colon = system: KM12 colon
HOP-92 NSCLC = system: HOP-92 NSCLC
PC-3 prostate = system: PC-3 prostate
SN12C renal = system: SN12C renal
OVCAR-8 ovarian = system: OVCAR-8 ovarian
HCT-116 colon = system: HCT-116 colon
COLO 205 colon = system: COLO 205 colon
NCI/ADR-RES ovarian = system: NCI/ADR-RES ovarian
EKVX NSCLC = system: EKVX NSCLC
SW-620 colon = system: SW-620 colon
A498 renal = system: A498 renal
MDA-MB-231 breast = system: MDA-MB-231 breast
CAKI-1 renal = system: CAKI-1 renal
SF-539 CNS = system: SF-539 CNS
786-0 renal = system: 786-0 renal
NCI-H23 lung = system: NCI-H23 lung
NCI-H460 lung = system: NCI-H460 lung
SF-295 CNS = system: SF-295 CNS
UACC-257 melanoma = system: UACC-257 melanoma
MDA-MB-435 = system: MDA-MB-435

Structure (SMILES): O=C(N/N=C/c1ccoc1)c1[nH]c2ccc(Br)cc2c1-c1ccccc1
- GI50 (MALME-3M melanoma): 5.25 µM
- TGI (MALME-3M melanoma): 21.4 µM
- GI50 (BT-549 breast): 0.416 µM
- TGI (BT-549 breast): 3.12 µM
- GI50 (M14 melanoma): 0.226 µM
- TGI (M14 melanoma): 14.7 µM
- GI50 (SNB-75 CNS): 0.299 µM
- TGI (SNB-75 CNS): 13.2 µM
- GI50 (CCRF-CEM leukemia): 0.227 µM
- TGI (CCRF-CEM leukemia): 15.3 µM
- GI50 (OVCAR-5 ovarian): 0.745 µM
- TGI (OVCAR-5 ovarian): 14.6 µM
- GI50 (SK-MEL-5 melanoma): 0.295 µM
- TGI (SK-MEL-5 melanoma): 1.67 µM
- GI50 (U251 CNS): 1.16 µM
- TGI (U251 CNS): 15.6 µM
- GI50 (SF-268 CNS): 1.2 µM
- TGI (SF-268 CNS): 14.5 µM
- GI50 (UO-31 renal): 1.01 µM
- TGI (UO-31 renal): 15.2 µM
- GI50 (K-562 leukemia): 0.197 µM
- TGI (K-562 leukemia): > 56.2 µM
- GI50 (HL-60(TB) leukemia): 0.205 µM
- TGI (HL-60(TB) leukemia): 0.852 µM
- GI50 (HCT-15 colon): 0.328 µM
- TGI (HCT-15 colon): 11.9 µM
- GI50 (HOP-62 NSCLC): 0.524 µM
- TGI (HOP-62 NSCLC): 17.6 µM
- GI50 (ACHN renal): 0.79 µM
- TGI (ACHN renal): 14.4 µM
- GI50 (MCF7 breast): 0.21 µM
- TGI (MCF7 breast): 12.7 µM
- GI50 (SK-OV-3 ovarian): 3.54 µM
- TGI (SK-OV-3 ovarian): 18.4 µM
- GI50 (DU-145 prostate): 0.568 µM
- TGI (DU-145 prostate): 12.4 µM
- GI50 (HT29 colon): 0.329 µM
- TGI (HT29 colon): 2.92 µM
- GI50 (MDA-MB-468 breast): 0.346 µM
- TGI (MDA-MB-468 breast): 3.88 µM
- GI50 (SK-MEL-2 melanoma): 0.954 µM
- TGI (SK-MEL-2 melanoma): 16.4 µM
- GI50 (RXF 393 renal): 0.455 µM
- TGI (RXF 393 renal): 19.8 µM
- GI50 (T-47D breast): 3.77 µM
- TGI (T-47D breast): 32.5 µM
- GI50 (A549 NSCLC): 1.13 µM
- TGI (A549 NSCLC): 14.7 µM
- GI50 (OVCAR-3 ovarian): 0.257 µM
- TGI (OVCAR-3 ovarian): 11.5 µM
- GI50 (OVCAR-4 ovarian): 5.23 µM
- TGI (OVCAR-4 ovarian): 20.9 µM
- GI50 (LOX IMVI melanoma): 0.265 µM
- TGI (LOX IMVI melanoma): 13.7 µM
- GI50 (NCI-H522 lung): 0.208 µM
- TGI (NCI-H522 lung): 1 µM
- GI50 (HS 578T breast): 0.279 µM
- TGI (HS 578T breast): 13 µM
- GI50 (NCI-H226 lung): 3.04 µM
- TGI (NCI-H226 lung): 16.2 µM
- GI50 (MOLT-4 leukemia): 0.405 µM
- TGI (MOLT-4 leukemia): 21 µM
- GI50 (SNB-19 CNS): 3.15 µM
- TGI (SNB-19 CNS): 20 µM
- GI50 (SR leukemia): 0.492 µM
- TGI (SR leukemia): 36.9 µM
- GI50 (IGROV1 ovarian): 1.25 µM
- TGI (IGROV1 ovarian): 13 µM
- GI50 (UACC-62 melanoma): 0.355 µM
- TGI (UACC-62 melanoma): 15.8 µM
- GI50 (TK-10 renal): 7.96 µM
- TGI (TK-10 renal): 24 µM
- GI50 (SK-MEL-28 melanoma): 2.75 µM
- TGI (SK-MEL-28 melanoma): 19.9 µM
- GI50 (RPMI-8226 leukemia): 0.36 µM
- TGI (RPMI-8226 leukemia): 33.2 µM
- GI50 (HCC-2998 colon): 0.755 µM
- TGI (HCC-2998 colon): 11.6 µM
- GI50 (KM12 colon): 0.461 µM
- TGI (KM12 colon): 13.5 µM
- GI50 (HOP-92 NSCLC): 0.989 µM
- TGI (HOP-92 NSCLC): 13.3 µM
- GI50 (PC-3 prostate): 0.436 µM
- TGI (PC-3 prostate): 16 µM
- GI50 (SN12C renal): 0.485 µM
- TGI (SN12C renal): 12.1 µM
- GI50 (OVCAR-8 ovarian): 0.369 µM
- TGI (OVCAR-8 ovarian): 5.93 µM
- GI50 (HCT-116 colon): 0.166 µM
- TGI (HCT-116 colon): 11.1 µM
- GI50 (COLO 205 colon): 0.43 µM
- TGI (COLO 205 colon): 3.14 µM
- GI50 (NCI/ADR-RES ovarian): 0.231 µM
- TGI (NCI/ADR-RES ovarian): 1.31 µM
- GI50 (EKVX NSCLC): 1.03 µM
- TGI (EKVX NSCLC): 13.6 µM
- GI50 (SW-620 colon): 0.297 µM
- TGI (SW-620 colon): 15.6 µM
- GI50 (A498 renal): 15.6 µM
- TGI (A498 renal): 30.2 µM
- GI50 (MDA-MB-231 breast): 0.906 µM
- TGI (MDA-MB-231 breast): 12.3 µM
- GI50 (CAKI-1 renal): 0.537 µM
- TGI (CAKI-1 renal): 15.4 µM
- GI50 (SF-539 CNS): 0.246 µM
- TGI (SF-539 CNS): 1.08 µM
- GI50 (786-0 renal): 0.665 µM
- TGI (786-0 renal): 14.4 µM
- GI50 (NCI-H23 lung): 0.728 µM
- TGI (NCI-H23 lung): 14.2 µM
- GI50 (NCI-H460 lung): 0.252 µM
- TGI (NCI-H460 lung): 10.7 µM
- GI50 (SF-295 CNS): 0.289 µM
- TGI (SF-295 CNS): 13 µM
- GI50 (UACC-257 melanoma): 7.66 µM
- TGI (UACC-257 melanoma): 23.3 µM
- GI50 (MDA-MB-435): 0.162 µM
- TGI (MDA-MB-435): 0.827 µM
